Tests used:
[1] = target: Serine/threonine-protein kinase Nek10 (Homo sapiens) (UniProt Q6ZWH5); details: Compound concentration 1000.0 nM
[2] = target: Mitogen-activated protein kinase kinase kinase 6 (Homo sapiens) (UniProt O95382); details: Compound concentration 1000.0 nM
[3] = target: Casein kinase I isoform epsilon (Homo sapiens) (UniProt P49674); details: Compound concentration 1000.0 nM
[4] = tested on: Serine/threonine-protein kinase B-raf (Homo sapiens), P15056 [V600E]; details: Compound concentration 1000.0 nM
[5] = target: MAP kinase-interacting serine/threonine-protein kinase 1 (Homo sapiens) (UniProt Q9BUB5); details: Compound concentration 1000.0 nM
[6] = target: Mitogen-activated protein kinase 7 (Homo sapiens) (UniProt Q13164); details: Compound concentration 1000.0 nM
[7] = target: TRAF2 and NCK-interacting protein kinase (Homo sapiens) (UniProt Q9UKE5); details: Compound concentration 1000.0 nM
[8] = target: Casein kinase I isoform gamma-2 (Homo sapiens) (UniProt P78368); details: Compound concentration 1000.0 nM
[9] = target: Macrophage-stimulating protein receptor (Homo sapiens) (UniProt Q04912); details: Compound concentration 1000.0 nM
[10] = target: Mitogen-activated protein kinase kinase kinase kinase 4 (Homo sapiens) (UniProt O95819); details: Compound concentration 1000.0 nM
[11] = target: STE20-like serine/threonine-protein kinase (Homo sapiens) (UniProt Q9H2G2); details: Compound concentration 1000.0 nM
[12] = target: Alpha-2C adrenergic receptor (Homo sapiens) (UniProt P18825); details: Compound concentration 10.0 uM
[13] = target: SRSF protein kinase 3 (Homo sapiens) (UniProt Q9UPE1); details: Compound concentration 1000.0 nM
[14] = target: SRSF protein kinase 1 (Homo sapiens) (UniProt Q96SB4); details: Compound concentration 1000.0 nM
[15] = target: Serine/threonine-protein kinase MARK1 (Homo sapiens) (UniProt Q9P0L2); details: Compound concentration 1000.0 nM
[16] = target: Phosphatidylinositol 4,5-bisphosphate 3-kinase catalytic subunit beta isoform (Homo sapiens) (UniProt P42338); details: Compound concentration 1000.0 nM
[17] = tested on: Receptor-type tyrosine-protein kinase FLT3 (Homo sapiens), P36888 [UNDEFINED MUTATION]; details: Compound concentration 1000.0 nM
[18] = tested on: Epidermal growth factor receptor (Homo sapiens), P00533 [T790M]; details: Compound concentration 1000.0 nM
[19] = target: Epithelial discoidin domain-containing receptor 1 (Homo sapiens) (UniProt Q08345); details: Compound concentration 1000.0 nM
[20] = target: Mitogen-activated protein kinase 9 (Homo sapiens) (UniProt P45984); details: Compound concentration 1000.0 nM
[21] = target: Ribosomal protein S6 kinase beta-1 (Homo sapiens) (UniProt P23443); details: Compound concentration 1000.0 nM
[22] = target: Phosphatidylinositol 4,5-bisphosphate 3-kinase catalytic subunit delta isoform (Homo sapiens) (UniProt O00329); details: Compound concentration 1000.0 nM
[23] = target: Tyrosine-protein kinase Tec (Homo sapiens) (UniProt P42680); details: Compound concentration 1000.0 nM
[24] = target: Serine/threonine-protein kinase TAO3 (Homo sapiens) (UniProt Q9H2K8); details: Compound concentration 1000.0 nM
[25] = target: Ephrin type-A receptor 4 (Homo sapiens) (UniProt P54764); details: Compound concentration 1000.0 nM
[26] = target: Mitogen-activated protein kinase kinase kinase 10 (Homo sapiens) (UniProt Q02779); details: Compound concentration 1000.0 nM
[27] = target: Myosin light chain kinase, smooth muscle (Homo sapiens) (UniProt Q15746); details: Compound concentration 1000.0 nM
[28] = target: Cyclin-dependent kinase 4 (Homo sapiens) (UniProt P11802); details: Compound concentration 1000.0 nM
[29] = target: Atypical kinase COQ8A, mitochondrial (Homo sapiens) (UniProt Q8NI60); details: Compound concentration 1000.0 nM
[30] = target: Serine/threonine-protein kinase Nek11 (Homo sapiens) (UniProt Q8NG66); details: Compound concentration 1000.0 nM
[31] = target: Histamine H2 receptor (Homo sapiens) (UniProt P25021); details: Compound concentration 10.0 uM
[32] = target: Ribosomal protein S6 kinase alpha-5 (Homo sapiens) (UniProt O75582); details: Compound concentration 1000.0 nM
[33] = target: G protein-coupled receptor kinase 4 (Homo sapiens) (UniProt P32298); details: Compound concentration 1000.0 nM
[34] = target: Mitogen-activated protein kinase kinase kinase 19 (Homo sapiens) (UniProt Q56UN5); details: Compound concentration 1000.0 nM
[35] = target: Tyrosine-protein kinase JAK1 (Homo sapiens) (UniProt P23458); details: Compound concentration 1000.0 nM
[36] = target: Inhibitor of nuclear factor kappa-B kinase subunit alpha (Homo sapiens) (UniProt O15111); details: Compound concentration 1000.0 nM
[37] = target: Dual specificity mitogen-activated protein kinase kinase 2 (Homo sapiens) (UniProt P36507); details: Compound concentration 1000.0 nM
[38] = target: Serine/threonine-protein kinase PAK 5 (Homo sapiens) (UniProt Q9P286); details: Compound concentration 1000.0 nM
[39] = target: Serine/threonine-protein kinase PAK 4 (Homo sapiens) (UniProt O96013); details: Compound concentration 1000.0 nM
[40] = target: Tyrosine-protein kinase FRK (Homo sapiens) (UniProt P42685); details: Compound concentration 1000.0 nM
[41] = target: Ribosomal protein S6 kinase alpha-3 (Homo sapiens) (UniProt P51812); details: Compound concentration 1000.0 nM
[42] = target: NUAK family SNF1-like kinase 2 (Homo sapiens) (UniProt Q9H093); details: Compound concentration 1000.0 nM
[43] = target: Ribosomal protein S6 kinase alpha-1 (Homo sapiens) (UniProt Q15418); details: Compound concentration 1000.0 nM
[44] = target: NUAK family SNF1-like kinase 1 (Homo sapiens) (UniProt O60285); details: Compound concentration 1000.0 nM
[45] = target: Cyclin-dependent kinase 2 (Homo sapiens) (UniProt P24941); details: Compound concentration 1000.0 nM

Sequence of Ephrin type-A receptor 4 (Homo sapiens) (P54764 whole entry): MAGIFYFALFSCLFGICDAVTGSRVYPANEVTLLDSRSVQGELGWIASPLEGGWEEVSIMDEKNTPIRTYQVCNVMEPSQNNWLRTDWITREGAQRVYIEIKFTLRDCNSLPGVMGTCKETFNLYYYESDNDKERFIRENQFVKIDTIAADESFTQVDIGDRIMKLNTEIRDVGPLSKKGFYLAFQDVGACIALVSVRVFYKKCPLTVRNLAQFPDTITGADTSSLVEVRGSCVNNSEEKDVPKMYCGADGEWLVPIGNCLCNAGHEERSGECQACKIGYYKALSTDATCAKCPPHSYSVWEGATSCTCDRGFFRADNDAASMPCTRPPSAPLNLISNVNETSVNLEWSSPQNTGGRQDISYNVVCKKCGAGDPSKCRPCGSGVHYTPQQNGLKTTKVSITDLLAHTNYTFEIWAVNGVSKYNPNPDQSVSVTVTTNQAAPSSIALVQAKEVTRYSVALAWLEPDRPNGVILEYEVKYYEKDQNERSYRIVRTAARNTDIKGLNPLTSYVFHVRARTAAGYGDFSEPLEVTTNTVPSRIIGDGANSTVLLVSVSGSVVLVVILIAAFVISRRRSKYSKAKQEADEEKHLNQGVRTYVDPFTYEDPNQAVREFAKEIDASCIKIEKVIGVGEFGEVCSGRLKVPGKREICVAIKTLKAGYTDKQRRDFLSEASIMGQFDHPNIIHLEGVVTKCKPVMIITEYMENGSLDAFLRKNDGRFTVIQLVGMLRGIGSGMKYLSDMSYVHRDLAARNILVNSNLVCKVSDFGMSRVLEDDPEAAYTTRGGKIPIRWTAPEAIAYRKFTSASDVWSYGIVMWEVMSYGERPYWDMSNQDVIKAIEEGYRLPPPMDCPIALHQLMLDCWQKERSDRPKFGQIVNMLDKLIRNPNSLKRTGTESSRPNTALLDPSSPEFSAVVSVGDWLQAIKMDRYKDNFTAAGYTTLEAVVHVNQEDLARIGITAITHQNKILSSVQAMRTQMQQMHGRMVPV
Sequence of Atypical kinase COQ8A, mitochondrial (Homo sapiens) (Q8NI60 163-647 limits assumed): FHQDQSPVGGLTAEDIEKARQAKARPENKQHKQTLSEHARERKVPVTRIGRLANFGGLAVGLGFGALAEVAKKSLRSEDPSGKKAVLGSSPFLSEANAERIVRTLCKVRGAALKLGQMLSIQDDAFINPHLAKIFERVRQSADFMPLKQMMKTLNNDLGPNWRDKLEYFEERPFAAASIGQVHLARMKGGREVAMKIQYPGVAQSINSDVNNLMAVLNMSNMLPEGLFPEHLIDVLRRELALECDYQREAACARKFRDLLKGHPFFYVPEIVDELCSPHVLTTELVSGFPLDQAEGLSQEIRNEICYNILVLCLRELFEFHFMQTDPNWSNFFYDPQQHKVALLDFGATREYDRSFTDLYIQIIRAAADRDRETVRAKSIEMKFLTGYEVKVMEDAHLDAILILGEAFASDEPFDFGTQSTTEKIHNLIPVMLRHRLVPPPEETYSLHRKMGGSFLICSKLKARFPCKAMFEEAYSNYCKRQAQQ
Sequence of Tyrosine-protein kinase Tec (Homo sapiens) (P42680 whole entry): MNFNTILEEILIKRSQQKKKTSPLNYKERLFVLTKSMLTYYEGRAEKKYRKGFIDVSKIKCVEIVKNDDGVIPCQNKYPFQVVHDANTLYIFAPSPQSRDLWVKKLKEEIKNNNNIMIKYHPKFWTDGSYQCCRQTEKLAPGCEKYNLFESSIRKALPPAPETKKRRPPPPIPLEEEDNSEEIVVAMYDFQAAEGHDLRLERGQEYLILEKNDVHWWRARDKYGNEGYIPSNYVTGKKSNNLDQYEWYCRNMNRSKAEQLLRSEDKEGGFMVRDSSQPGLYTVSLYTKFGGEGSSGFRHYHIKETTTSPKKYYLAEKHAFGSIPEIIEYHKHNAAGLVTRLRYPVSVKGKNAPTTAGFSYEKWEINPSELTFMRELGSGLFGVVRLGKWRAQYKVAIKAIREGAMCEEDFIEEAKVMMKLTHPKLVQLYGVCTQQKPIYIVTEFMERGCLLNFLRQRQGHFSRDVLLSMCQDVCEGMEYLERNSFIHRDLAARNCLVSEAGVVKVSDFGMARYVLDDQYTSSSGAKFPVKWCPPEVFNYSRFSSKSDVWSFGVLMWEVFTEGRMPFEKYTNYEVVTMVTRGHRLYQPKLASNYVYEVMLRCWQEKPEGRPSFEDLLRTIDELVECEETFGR
Sequence of Inhibitor of nuclear factor kappa-B kinase subunit alpha (Homo sapiens) (O15111 whole entry): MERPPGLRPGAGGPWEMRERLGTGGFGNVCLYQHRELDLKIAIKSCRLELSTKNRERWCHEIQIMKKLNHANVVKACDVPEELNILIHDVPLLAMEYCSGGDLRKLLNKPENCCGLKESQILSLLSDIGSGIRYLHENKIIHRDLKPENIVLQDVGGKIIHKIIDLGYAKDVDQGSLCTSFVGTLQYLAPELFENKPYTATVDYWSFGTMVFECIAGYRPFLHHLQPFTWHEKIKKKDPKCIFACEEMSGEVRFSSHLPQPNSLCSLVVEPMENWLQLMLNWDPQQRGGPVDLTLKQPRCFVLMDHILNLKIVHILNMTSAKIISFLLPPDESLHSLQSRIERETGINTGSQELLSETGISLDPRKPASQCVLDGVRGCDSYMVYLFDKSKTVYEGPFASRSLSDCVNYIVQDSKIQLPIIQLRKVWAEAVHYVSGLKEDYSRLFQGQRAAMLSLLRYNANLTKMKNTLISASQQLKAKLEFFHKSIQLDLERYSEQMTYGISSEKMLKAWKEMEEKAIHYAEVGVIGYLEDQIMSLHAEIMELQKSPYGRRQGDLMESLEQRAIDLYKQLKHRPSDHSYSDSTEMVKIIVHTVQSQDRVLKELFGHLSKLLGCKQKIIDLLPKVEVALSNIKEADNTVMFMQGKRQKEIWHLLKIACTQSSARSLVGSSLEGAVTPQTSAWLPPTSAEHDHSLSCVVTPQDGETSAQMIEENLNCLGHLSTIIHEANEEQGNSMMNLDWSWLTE
Sequence of Tyrosine-protein kinase JAK1 (Homo sapiens) (P23458 whole entry): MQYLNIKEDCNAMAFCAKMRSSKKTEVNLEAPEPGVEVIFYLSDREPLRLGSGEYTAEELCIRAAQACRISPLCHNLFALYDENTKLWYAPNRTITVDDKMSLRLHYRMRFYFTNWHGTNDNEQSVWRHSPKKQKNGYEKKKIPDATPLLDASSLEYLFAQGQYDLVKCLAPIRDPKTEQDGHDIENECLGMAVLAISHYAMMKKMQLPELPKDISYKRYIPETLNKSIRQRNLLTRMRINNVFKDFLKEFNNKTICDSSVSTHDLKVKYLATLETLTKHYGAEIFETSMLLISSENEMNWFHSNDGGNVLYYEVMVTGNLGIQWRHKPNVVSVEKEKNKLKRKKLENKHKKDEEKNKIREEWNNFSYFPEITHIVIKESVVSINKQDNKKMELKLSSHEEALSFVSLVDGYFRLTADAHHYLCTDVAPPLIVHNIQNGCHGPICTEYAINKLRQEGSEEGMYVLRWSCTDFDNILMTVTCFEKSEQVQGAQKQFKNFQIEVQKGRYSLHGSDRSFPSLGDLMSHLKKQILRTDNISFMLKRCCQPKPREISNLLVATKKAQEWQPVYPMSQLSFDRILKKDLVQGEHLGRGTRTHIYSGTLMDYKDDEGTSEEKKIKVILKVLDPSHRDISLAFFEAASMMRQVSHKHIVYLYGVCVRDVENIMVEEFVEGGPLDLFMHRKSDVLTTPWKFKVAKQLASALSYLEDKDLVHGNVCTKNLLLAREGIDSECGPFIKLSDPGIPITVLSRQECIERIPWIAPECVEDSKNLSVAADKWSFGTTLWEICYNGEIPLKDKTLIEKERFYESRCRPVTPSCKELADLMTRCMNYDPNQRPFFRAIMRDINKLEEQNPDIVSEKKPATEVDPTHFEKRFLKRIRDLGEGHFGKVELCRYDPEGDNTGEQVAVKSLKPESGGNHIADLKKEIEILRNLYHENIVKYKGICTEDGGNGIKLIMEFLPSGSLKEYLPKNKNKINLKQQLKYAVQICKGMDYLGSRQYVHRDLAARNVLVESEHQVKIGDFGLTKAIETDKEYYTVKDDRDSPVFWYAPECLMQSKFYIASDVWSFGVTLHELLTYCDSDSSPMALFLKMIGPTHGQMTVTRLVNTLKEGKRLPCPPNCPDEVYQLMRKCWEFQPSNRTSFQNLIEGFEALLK
Sequence of Epithelial discoidin domain-containing receptor 1 (Homo sapiens) (Q08345 whole entry, the tested form may be a part): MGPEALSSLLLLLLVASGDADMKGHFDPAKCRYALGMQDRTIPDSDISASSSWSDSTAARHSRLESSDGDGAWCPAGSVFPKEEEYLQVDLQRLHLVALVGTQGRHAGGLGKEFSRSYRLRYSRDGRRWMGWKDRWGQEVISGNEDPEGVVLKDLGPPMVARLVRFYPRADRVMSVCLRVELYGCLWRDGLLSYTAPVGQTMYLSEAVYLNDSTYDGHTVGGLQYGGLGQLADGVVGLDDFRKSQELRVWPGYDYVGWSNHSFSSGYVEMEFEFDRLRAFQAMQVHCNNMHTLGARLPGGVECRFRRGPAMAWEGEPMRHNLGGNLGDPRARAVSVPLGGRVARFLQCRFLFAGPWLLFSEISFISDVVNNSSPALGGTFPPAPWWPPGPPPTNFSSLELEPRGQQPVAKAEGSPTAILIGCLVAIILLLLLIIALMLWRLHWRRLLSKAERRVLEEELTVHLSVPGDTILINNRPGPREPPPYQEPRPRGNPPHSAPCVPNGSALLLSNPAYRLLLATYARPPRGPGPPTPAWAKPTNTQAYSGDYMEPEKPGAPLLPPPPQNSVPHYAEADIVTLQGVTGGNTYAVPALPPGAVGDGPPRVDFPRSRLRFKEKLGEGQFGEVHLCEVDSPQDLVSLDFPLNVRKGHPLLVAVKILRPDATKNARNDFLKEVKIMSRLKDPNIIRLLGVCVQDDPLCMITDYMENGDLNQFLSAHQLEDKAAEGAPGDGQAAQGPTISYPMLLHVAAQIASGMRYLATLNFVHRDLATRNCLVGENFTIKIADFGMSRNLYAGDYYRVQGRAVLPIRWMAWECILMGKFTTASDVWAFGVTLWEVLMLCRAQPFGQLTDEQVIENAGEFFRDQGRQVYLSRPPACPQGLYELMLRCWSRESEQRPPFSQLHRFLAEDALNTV

O=C(O)[C@@H]1[C@@H](Cn2nnc3ccccc3c2=O)CC[C@H]1C(=O)c1ccc(OCCC2CCOCC2)cc1 [BAY-694]
inactive: residual activity [1] 88% | residual activity [2] 79% | residual activity [3] 90% | residual activity [4] 100% | residual activity [5] 93% | residual activity [6] 100% | residual activity [7] 93% | residual activity [8] 100% | residual activity [9] 91% | residual activity [10] 93% | residual activity [11] 88% | inhibition [12] 13.1% | residual activity [13] 100% | residual activity [14] 100% | residual activity [15] 100% | residual activity [16] 66% | residual activity [17] 100% | residual activity [18] 94% | residual activity [19] 100% | residual activity [20] 100% | residual activity [21] 100% | residual activity [22] 99% | residual activity [23] 95% | residual activity [24] 100% | residual activity [25] 92% | residual activity [26] 100% | residual activity [27] 100% | residual activity [28] 86% | residual activity [29] 88% | residual activity [30] 100% | inhibition [31] 17.5% | residual activity [32] 100% | residual activity [33] 100% | residual activity [34] 84% | residual activity [35] 100% | residual activity [36] 100% | residual activity [37] 100% | residual activity [38] 96% | residual activity [39] 89% | residual activity [40] 89% | residual activity [41] 100% | residual activity [42] 100% | residual activity [43] 92% | residual activity [44] 84% | residual activity [45] 100%

O=C(O)[C@H]1[C@H](Cn2nnc3ccccc3c2=O)CC[C@@H]1C(=O)c1ccc(OCCC2CCOCC2)cc1 [BAY-7598]
inactive: residual activity [1] 69% | residual activity [2] 91% | residual activity [3] 100% | residual activity [4] 100% | residual activity [5] 96% | residual activity [6] 100% | residual activity [7] 84% | residual activity [8] 87% | residual activity [9] 96% | residual activity [10] 91% | residual activity [11] 96% | inhibition [12] 8.3% | residual activity [13] 84% | residual activity [14] 79% | residual activity [15] 99% | residual activity [16] 80% | residual activity [17] 87% | residual activity [18] 77% | residual activity [19] 100% | residual activity [20] 79% | residual activity [21] 100% | residual activity [22] 89% | residual activity [23] 100% | residual activity [24] 100% | residual activity [25] 90% | residual activity [26] 82% | residual activity [27] 74% | residual activity [28] 96% | residual activity [29] 100% | residual activity [30] 100% | inhibition [31] 12.6% | residual activity [32] 100% | residual activity [33] 82% | residual activity [34] 78% | residual activity [35] 100% | residual activity [36] 100% | residual activity [37] 100% | residual activity [38] 98% | residual activity [39] 91% | residual activity [40] 100% | residual activity [41] 81% | residual activity [42] 100% | residual activity [43] 95% | residual activity [44] 71% | residual activity [45] 100%
